pKi: −log10 of the molar value.
molecular target: T1, hGRK-2 (Homo sapiens, UniProt P25098); experiment: luciferase-based (Kinase-Glo) biochemical kinase inhibition assay, hGRK-2; conditions: luciferase assay, casein substrate, 10 μM ATP; read-out: GRK-2 inhibition, Ki class
T1 sequence (P25098 1-689): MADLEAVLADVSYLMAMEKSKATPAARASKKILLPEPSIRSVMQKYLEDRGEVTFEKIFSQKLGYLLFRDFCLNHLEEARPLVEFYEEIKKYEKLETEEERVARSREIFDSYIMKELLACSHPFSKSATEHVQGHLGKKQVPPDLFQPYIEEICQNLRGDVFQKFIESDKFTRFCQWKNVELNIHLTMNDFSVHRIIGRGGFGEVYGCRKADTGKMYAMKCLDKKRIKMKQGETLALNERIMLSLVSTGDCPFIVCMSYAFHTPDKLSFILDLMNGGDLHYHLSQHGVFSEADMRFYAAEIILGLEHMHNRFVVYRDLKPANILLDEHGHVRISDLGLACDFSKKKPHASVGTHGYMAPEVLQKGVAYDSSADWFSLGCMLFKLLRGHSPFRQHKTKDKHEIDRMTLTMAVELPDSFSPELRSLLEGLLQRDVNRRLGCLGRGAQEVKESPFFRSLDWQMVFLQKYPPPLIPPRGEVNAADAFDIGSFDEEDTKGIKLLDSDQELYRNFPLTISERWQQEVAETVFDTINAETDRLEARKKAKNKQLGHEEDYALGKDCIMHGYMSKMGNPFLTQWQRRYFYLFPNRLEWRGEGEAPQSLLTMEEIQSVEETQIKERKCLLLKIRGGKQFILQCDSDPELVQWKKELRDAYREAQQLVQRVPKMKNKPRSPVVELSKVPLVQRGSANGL
Procedure: The inhibition of G-protein-coupled receptor kinases including hGRK-2 was determined for the hydrazide compounds using a biochemical assay. The inhibition of GRK-3, GRK-5 and GRK-6 was also determined using the same assay for some of the hydrazide derivatives.
The protein kinase inhibition was determined using a biochemical assay utilizing the light emission of a luciferase reaction. The luciferase-based assay operates on the following reaction principles: [drawing 10]
An inhibitor of GRK-2 will increase in the amount of ATP in solution, as shown. Thus, an inhibitor of GRK-2 will drive the luciferase reaction to the right, resulting in more light emitted. The amount of light emitted is proportional to the inhibition resulting from the GRK-2 inhibitor. The luciferase-based assay was also used to test some of the hydrazides for the inhibition properties towards other kinases.
The test procedure was as follows:
• 50 mM HEPES, pH 7.5 • 10 mM MgCl2 • 100 μM activated sodium orthovanadate • 0.01% CHAPS • 0.1% BSA • 1 mM DTT (added fresh daily) 10× Assay Buffer Stock: • 500 mM HEPES, pH 7.5 • 100 mM MgCl2 • 1 mM activated sodium orthovanadate • 0.1% CHAPS • 1% BSA (leave out for 10× compound dilution buffer) Final Assay Conditions: • 50 μM test compound • 20 μM casein • 10 μM ATP • 50 nM hGRK2 • 4.5% DMSO • 90-120 minute incubation
Stopped by addition of 30 μl 3×-diluted Kinase-Glo reagent containing 0.01% trypan blue. Counted on FUSION plate reader.
Compound Dilution and Transfer
Prepare sufficient buffer containing 40% DMSO to add 20 μl/well to the number of plates being assayed. This buffer should not contain BSA because it will precipitate with addition of 40% DMSO. (EXAMPLE: To make 3000 ml compound dilution buffer: 1200 ml DMSO, 180 ml 10× compound dilution buffer, 1615 ml ultrapure water, 3 ml 1M DTT.).
Using Multidrop, add 20 μl of compound dilution buffer to all wells of the 384-well daughter plate (add 1 μl DMSO to control wells). This will result in a daughter plate which contains 21 μl of ˜500 μM test compound.
Using the PlateTrak, transfer 5 μl of the test compounds to a 384-well, non-binding, white microtiter plate.
Prepare sufficient volume of buffer (with BSA and 1 mM DTT) containing 125 nM GRK2 and 25 μM ATP. (Example: To 219 ml of buffer was added 550 μl 10 mM ATP and 350 μl 79 μM GRK2).
Using Multidrop, add 20 μl of GRK2/ATP mixture to all wells of the microtiter plate.
Prepare sufficient volume of buffer (with BSA and 1 mM DTT) containing 40 μM casein. (EXAMPLE: To 211 ml buffer add 8.8 ml 1 mM casein)
Using Multidrop, add 25 μl to columns 1 through 23 of the microtiter plate. Add 25 μl of complete buffer to column 24 (blanks).
Mix reaction gently by tapping (Multidrop addition of casein does a decent job of mixing), stack plates and incubate at room temperature for between 90 and 120 minutes. Assay progression can be tracked in a separate plate if desired. Target 20-30% ATP consumption. Try to avoid exceeding 40% consumption as kinetics might become non-linear due to substrate (ATP) depletion.
Addition of Kinase-Glo Reagents
The Kinase-Glo reagent can be diluted 3-fold with no loss of data quality in this assay. Additionally, since the library contains many colored compounds which will quench the light emitted from the well resulting in a false negative (kinase inhibitors result in less ATP consumption thus more light emitted), the entire reaction is subject to intentional quench to override this effect. This intentional quench is accomplished by the addition of 0.01% trypan blue to the Kinase-Glo reagents. (EXAMPLE: 100 ml 1× Kinase-Glo reagents (prepared according to product insert), 200 ml assay buffer, 7.5 ml 0.4% trypan blue.
Using Multidrop, add 30 μl to all wells of the assay plate.
Count on FUSION plate reader in luminescence mode.

Compound | pKi
O=C(CNc1cccc(C(=O)NCCN2CCOCC2)c1)N/N=C/c1c(Cl)cncc1Cl [Example 33, 3-{[1-(3,5-Dichloro-pyridin-4-yl)-meth-(E)-ylidene-hydrazinocarbonylmethyl]-amino}-N-(2-morpholin-4-yl-ethyl)-benzamide] | 7.00 to 8.00
O=C(CNc1ccc(F)cc1)N/N=C/c1c(Cl)cncc1Cl [Example 14, (4-Fluoro-phenylamino)-acetic acid [1-(3,5-dichloro-pyridin-4-yl)-meth-(E)-ylidene]-hydrazide] | 5.00 to 6.00
O=C(CNc1cccc(-n2cccn2)c1)N/N=C/c1c(Cl)cncc1Cl [Example 34] | < 5.00
O=C(CNc1cccc(I)c1)N/N=C/c1ccncc1 [Example 49, (3-Iodo-phenylamino)-acetic acid [1-pyridin-4-yl-meth-(E)-ylidene]-hydrazide] | 6.00 to 7.00
O=C(CNc1cccc(Br)c1)N/N=C/c1c(Cl)cncc1Cl [Example 6, (3-Bromo-phenylamino)-acetic acid [1-(3,5-dichloro-pyridin-4-yl)-meth-(E)-ylidene]-hydrazide] | 5.00 to 6.00
N#Cc1ccc(NCC(=O)N/N=C/c2ccncc2)cc1 [Example 60] | 5.00 to 6.00
Cc1ccccc1Oc1ccccc1NCC(=O)N/N=C/c1c(Cl)cncc1Cl [Example 30, (^2-o-Tolyloxy-phenylamino)-acetic acid [1-(3,5-dichloro-pyridin-4-yl)-meth-(E)-ylidene]-hydrazide] | < 5.00
O=C(CNc1ccccc1)N/N=C/c1ccncc1 [Example 42, Phenylamino-acetic acid [1-pyridin-4-yl-meth-(E)-ylidene]-hydrazide] | 6.00 to 7.00
CCOc1ccccc1NCC(=O)N/N=C/c1ccncc1 [Example 66, (2-Ethoxy-phenylamino)-acetic acid [1-pyridin-4-yl-meth-(E)-ylidene]-hydrazide] | < 5.00
CS(=O)(=O)Nc1cccc(NCC(=O)N/N=C/c2ccncc2)c1 [Example 64] | < 5.00
Cc1ccccc1NCC(=O)N/N=C/c1c(Cl)cncc1Cl [Example 25, o-Tolylamino-acetic acid [1-(3,5-dichloro-pyridin-4-yl)-meth-(E)-ylidene]-hydrazide] | 5.00 to 6.00
O=C(CNc1cccc(C(F)(F)F)c1)N/N=C/c1ccncc1 [Example 50, (3-Trifluoromethyl-phenylamino)-acetic acid [1-pyridin-4-yl-meth-(E)-ylidene]-hydrazide] | 5.00 to 6.00
O=C(CNc1ccc(C(F)(F)F)cc1)N/N=C/c1ccncc1 [Example 54, (4-Trifluoromethyl-phenylamino)-acetic acid [1-pyridin-4-yl-meth-(E)-ylidene]-hydrazide] | < 5.00
Dimethyl-carbamic acid 3-{[1-pyridin-4-yl-meth-(E)-ylidene-hydrazinocarbonyl-methyl]-amino}-phenyl ester [Example 101] | < 5.00
CCc1ccccc1NCC(=O)N/N=C/c1ccncc1 [Example 68, (2-Ethyl-phenylamino)-acetic acid [1-pyridin-4-yl-meth-(E)-ylidene]-hydrazide] | < 5.00
Cc1ccccc1NCC(=O)N/N=C/c1ccncc1 [Example 65, o-Tolylamino-acetic acid [1-pyridin-4-yl-meth-(E)-ylidene]-hydrazide] | < 5.00
O=C(CNc1ccccc1Br)N/N=C/c1c(Cl)cncc1Cl [Example 29, (2-Bromo-phenylamino)-acetic acid [1-(3,5-dichloro-pyridin-4-yl)-meth-(E)-ylidene]-hydrazide] | < 5.00

Other lines, results leading:

pKi | Compound
7.00 to 8.00 | O=C(CNc1cccc(Oc2ccc(F)cc2F)c1)N/N=C/c1ccncc1 [Example 84, [3-(2,4-Difluoro-phenoxy)-phenylamino]-acetic acid [1-pyridin-4-yl-meth-(E)-ylidene]-hydrazide]
< 5.00 | O=C(CNc1cccc(-n2cncn2)c1)N/N=C/c1ccncc1 [Example 78, (3-[1,2,4]Triazol-1-yl-phenylamino)-acetic acid [1-pyridin-4-yl-meth-(E)-ylidene]-hydrazide]
6.00 to 7.00 | O=C(CNc1cccc(Oc2ccc(OC(F)(F)F)cc2)c1)NN=Cc1ccncc1 (mixture of isomers) [Example 77, [3-(4-Trifluoromethoxy-phenoxy)-phenylamino]-acetic acid [1-pyridin-4-yl-meth-(E/Z)-ylidene]-hydrazide]
< 5.00 | O=C(CNc1cccc(Cl)c1)N/N=C/c1ccnc2ccccc12 [Example 91, (3-Chloro-phenylamino)-acetic acid [1-quinolin-4-yl-meth-(E)-ylidene]-hydrazide]
< 5.00 | O=C(CNc1ccccc1N1CCCCC1)N/N=C/c1ccncc1 [Example 74, (2-Piperidin-1-yl-phenylamino)-acetic acid [1-pyridin-4-yl-meth-(E)-ylidene]-hydrazide]
6.00 to 7.00 | O=C(CNc1cccc(Oc2cccnc2)c1)N/N=C/c1ccncc1 [Example 86, [3-(Pyridin-3-yloxy)-phenylamino]-acetic acid [1-pyridin-4-yl-meth-(E)-ylidene]-hydrazide]
5.00 to 6.00 | O=C(CNc1cccc(Cl)c1)N/N=C/c1ccoc1 [Example 94, (3-Chloro-phenylamino)-acetic acid [1-furan-3-yl-meth-(E)-ylidene]-hydrazide]
< 5.00 | O=C(CNc1ccc(I)cc1)N/N=C/c1ccncc1 [Example 71, (4-Iodo-phenylamino)-acetic acid [1-pyridin-4-yl-meth-(E)-ylidene]-hydrazide]
< 5.00 | CC(C)c1ccccc1NCC(=O)N/N=C/c1ccncc1 [Example 69, (2-Isopropyl-phenylamino)-acetic acid [1-pyridin-4-yl-meth-(E)-ylidene]-hydrazide]
< 5.00 | O=C(CNc1cccc(Cl)c1)NNCc1ccncc1 [Example 95, (3-Chloro-phenylamino)-acetic acid N′-pyridin-4-ylmethyl-hydrazide]
< 5.00 | CC(Nc1cccc(Oc2ccccc2)c1)C(=O)N/N=C/c1c(Cl)cncc1Cl (centres unmarked) [Example 98, 2-(3-Phenoxy-phenylamino)-propionic acid [1-(3,5-dichloro-pyridin-4-yl)-meth-(E)-ylidene]-hydrazide]
< 5.00 | Cn1cncc1/C=N/NC(=O)CNc1cccc(Cl)c1 [Example 92, (3-Chloro-phenylamino)-acetic acid [1-(3-methyl-3H-imidazol-4-yl)-meth-(E)-ylidene]-hydrazide]
